Patent US11851459B2, “Methods and uses of modulators of anaphase promoting complex (APC) activity for treating cancer” (University of Saskatchewan, priority 2018, dated 2023)
Entries after “also recorded” stand apart in the source; their conditions may differ. Each block holds one molecule with its values, some of them ahead of it.

Experiments:
MDA-MB-231 cells [1] = assay: Scratch assay, migration of MDA-MB-231 cells; type: cell-based, human
Method: A. An equal number of MDA-MB-231 TNBC cells were grown to confluence in 6 well plates. The cells were then treated with increasing doses of metformin (0, 1, 5 and 10 mM) and a scratch was made in the cell lawn creating a void. At the times shown the number of cell that migrated into the void were counted. The experiment was repeated twice. B. WT MDA-MB-231 cells and cells stably expressing the C43-4 plasmid were grown as in A. Control cells were left untreated, with other cells treated with the DMSO control, 1 uM DOX or 2.5 uM M2I-1. A void was created in the cell lawn and the number of cells that entered the void were scored as above. This experiment was repeated 4 times. This experiment was also repeated 4 times in an independently generated stable C43-4 cell line with similar results. The error of the mean is shown. C. WT and MDA-MB-231 cells stably expressing the C2-4B peptide plasmid were used for the scratch assay as described above. D. WT and MDA-MB-231 cells stably expressing the C13-3 peptide plasmid were used for the scratch assay as described above. The experiments in C and D were only performed once.
Assays using WT and C43-4 expressing cells have been done 4 times. Assays using C13-3 and C2-4B cells have only been conducted once. Metformin treated cells have been used twice. For scratch assays, a scratch is made down a confluent plate of cells, leaving a void. The number of cells that migrate back into the void over time is determined.

Apc10 = molecular target: T1, Apc10 (Saccharomyces cerevisiae, UniProt P53068); assay: Yeast 2-hybrid (Y2H) assay, Apc10 bait; type: binding
T1 construct: expressed in transfected cells; host or cells: yeast Y2H cells
T1 sequence (P53068 1-250): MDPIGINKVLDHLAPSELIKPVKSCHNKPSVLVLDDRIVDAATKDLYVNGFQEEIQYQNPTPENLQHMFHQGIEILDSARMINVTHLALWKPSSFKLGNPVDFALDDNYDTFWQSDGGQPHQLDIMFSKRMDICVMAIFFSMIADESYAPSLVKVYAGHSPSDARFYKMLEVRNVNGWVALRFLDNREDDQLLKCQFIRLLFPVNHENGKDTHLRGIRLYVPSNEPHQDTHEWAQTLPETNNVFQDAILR
Method: (§1) The reverse genetic screen utilized a yeast 2-hybrid (Y2H) protocol that selected for peptides that bound to the APC subunits Apc5 or Apc10 (see FIG. 8 for APC structure), to assess whether peptide-binding might modify APC function. Peptides that bound APC subunits were then assayed for those that suppressed APC mutant defects.
A library of random small peptides were cloned into a Thioredoxin (Trx) scaffold (see FIG. 9 for Trx-peptide structure) and expressed from a galactose-inducible Y2H prey vector in cells expressing the Apc10 bait vector (the modified Apc10 is still part of the complete APC complex). Six peptides that reproducibly interacted with the Apc10 bait construct in Y2H assays were identified (FIG. 1A) and were examined further. Cells will only grow in this assay if the peptide interacts with Apc5 or Apc10.
(§2) To identify peptides that bound to either Apc5 or Apc10 proteins using a yeast 2-hybrid (Y2H) screen, random small peptides were cloned into the TrxA scaffold (library provided by R. Geyer; FIG. 9) and expressed from a galactose-inducible Y2H prey vector in cells harboring either the APC5 or APC10 genes cloned into the Y2H bait vectors (APC5/APC10 bait constructs complement APC mutant defects).
(§3) Over 100 peptides that bound either Apc5 or Apc10 were recovered from millions screened. Six peptides that reproducibly interacted with the Apc5 or Apc10 bait construct in Y2H assays were examined further. Vectors expressing these 6 peptides were transformed into WT or APC mutant cells and assessed for ts growth.

[2] = tested on: APC (substrates Cyclin B, Securin, Cdc20, HURP); assay: APC substrate westerns in MDA-MB-231 cells expressing peptides; type: cell-based, human; settings: for levels of the APC substrate HURP: MDA-MB-231 stably transfected, normalized to tubulin; for levels of the APC substrate CDC20: MDA-MB-231 stably expressing peptides
Method: (§4) A. Transient transfection of the C43-4 peptide plasmid into human triple negative MDA-MB-231 breast cancer cells followed by Western blot analysis of lysates against Cyclin B, Securin and Cdc20 showing enhanced protein loss. B. Cells in A were treated with DOX (1 uM) for 48 hrs with cell viability measured using an MTT assay kit. The experiment was done in triplicate with standard error of the means shown.
(§5) A. Stable integration of C43-4 in MDA-MB-231 cells was established by selection of transfected cells on Geneticin for 7 days. Westerns against APC substrates show APC activation. B. Cells in A were treated with DOX (1 uM) for 48 hrs with cell viability measured using an MTT assay kit. Mean and SEM of 3 biological repeats.
(§6) A. TNBC MDA-MB-231 cells stably expressing APC binding peptides activate the APC. Cells were grown to confluence and then used to prepare protein lysates. The lysates were used to measure levels of the APC substrate CDC20, which will be reduced if the APC is activated. Cells stably expressing the pcDNA empty vector were used as a control. B. In a similar experiment, MDA-MB-231 cells stably expressing the APC binding peptides shown, or the empty vector control, were used to measure protein levels of the APC substrate HURP using Westerns. C. Triplicate blots as in B were scanned, normalized to tubulin and plotted. Error of the mean is shown. Significant changes are indicated. D. MDA-MB-231 cells stably expressing the empty pcDNA vector, or the C43-4 and C13-3 APC binding peptides, were treated with 1 μM Doxorubicin for 24 hrs. Cell viability was measured using an MTT viability assay.
The C43-4 peptide sequence was cloned into the human expression vector pcDNA. This construct was transiently, and stably, expressed in human breast cancer cell line MDA-MB-231. […] In 231 cells, which are triple negative, aggressive and somewhat resistant to Doxorubicin, the transiently and stably transfected C43-4 peptide resensitized them to DOX treatment (FIGS. 22B and 23B).
(§7) In FIG. 26B, MDA-MB-231 cells were also stably transfected with the peptides C1-8, C2-4B, C3-1B, and C9-5. Levels of the APC substrate HURP were measured in lysates prepared from these cells. […] The empty vector pcDNA was also stably expressed in 231 cells and used as a control.

APC = assay: Yeast 2-hybrid assay for binding the APC
Method: as §1, §2

[3] = tested on: apc5^CA temperature sensitive mutant; assay: Forward genetic screen, rescue of apc5^CA ts growth; type: cell-based, yeast; settings: restrictive temperature
Text: Using a forward genetic screen to test whether temperature sensitive (ts) APC mutants expressing random small peptides could grow at restrictive temperatures, millions of small peptides were rapidly screened for those that could restore mutant APC phenotypes. Peptides that rescued the apc5^CA ts (temperature sensitive) defect were recovered including peptides Y65 and Y36.
In the forward screens, with galactose-inducible TrxA-based peptide libraries, in cells harboring the apc5^CA ts allele, over 200 peptides (from millions screened) suppressed the ts phenotype. Several recovered plasmids were sequenced.

[4] = tested on: apc5 temperature sensitive mutant and/or apc10Δ mutant; assay: Viability of APC mutant yeast (spot dilution); type: cell-based
Text: Suitable APC activators also include APC activators that increase the cell viability of an wild-type and/or an APC mutant cell by at least 10%, at least 20%, at least 30%, at least 40%, at least 50%, at least 60%, at least 70% or at least 80% compared to a cell with wild-type APC function. […] Examples of yeast cells with defective APC function include apc5 and apc10 mutants. An example of an apc5 mutant is the apc5 temperature sensitive mutant described herein. An example of an apc10 mutant is the apc10 deletion mutant described herein. Viability of a yeast mutant can be measured for example, by the spot dilution assays described herein or any other method known in the art.
as §1, §3

Apc5 = molecular target: T2, Apc5 (Saccharomyces cerevisiae, UniProt Q08683); assay: Yeast 2-hybrid (Y2H) assay, Apc5 bait; type: binding
T2 construct: expressed in transfected cells; host or cells: yeast Y2H cells
T2 sequence (Q08683 1-685): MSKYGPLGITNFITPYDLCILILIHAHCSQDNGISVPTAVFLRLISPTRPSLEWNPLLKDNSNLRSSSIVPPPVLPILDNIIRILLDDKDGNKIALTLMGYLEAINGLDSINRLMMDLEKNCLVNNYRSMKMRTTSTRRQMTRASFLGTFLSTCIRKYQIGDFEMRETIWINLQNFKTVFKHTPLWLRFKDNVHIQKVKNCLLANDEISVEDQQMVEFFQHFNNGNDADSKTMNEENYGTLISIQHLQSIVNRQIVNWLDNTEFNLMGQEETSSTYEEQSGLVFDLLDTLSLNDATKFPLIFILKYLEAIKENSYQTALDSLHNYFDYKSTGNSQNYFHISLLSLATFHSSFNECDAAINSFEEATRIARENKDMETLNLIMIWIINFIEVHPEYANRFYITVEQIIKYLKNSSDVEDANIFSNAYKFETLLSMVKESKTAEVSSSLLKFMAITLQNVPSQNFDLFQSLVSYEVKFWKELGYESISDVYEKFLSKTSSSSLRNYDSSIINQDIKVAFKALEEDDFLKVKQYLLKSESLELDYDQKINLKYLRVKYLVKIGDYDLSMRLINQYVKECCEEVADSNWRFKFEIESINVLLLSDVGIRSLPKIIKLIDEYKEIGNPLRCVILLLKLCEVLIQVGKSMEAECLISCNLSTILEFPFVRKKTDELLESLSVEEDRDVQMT
Method: as §1, §2, §3

MDA-MB-231 cells [5] = assay: DOX sensitivity, MTT viability assay, MDA-MB-231 cells expressing peptides; type: cell-based, human; settings: stably transfected, 1 uM Doxorubicin 24 hours
Method: as §4, §5, §6, §7

Cin5 = molecular target: T3, Cin5 (Saccharomyces cerevisiae, UniProt P40917); assay: Yeast 2-hybrid with Y65 as bait to identify binding partners
T3 construct: expressed in transfected cells; host or cells: yeast Y2H cells
T3 sequence (P40917 1-295): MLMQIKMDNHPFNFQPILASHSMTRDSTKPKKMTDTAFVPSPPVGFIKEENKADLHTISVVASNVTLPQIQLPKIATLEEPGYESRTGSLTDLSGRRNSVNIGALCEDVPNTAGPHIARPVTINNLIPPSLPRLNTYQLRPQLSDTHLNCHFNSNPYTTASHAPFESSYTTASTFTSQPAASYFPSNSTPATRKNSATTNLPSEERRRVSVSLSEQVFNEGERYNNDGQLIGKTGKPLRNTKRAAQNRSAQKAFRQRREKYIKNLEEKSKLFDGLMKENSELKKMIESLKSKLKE
Text: One peptide in particular, Y65, was of interest because it had homology to Elongin C (Elc1; Y65 is 20 amino acids in length, with a 7 residue stretch sharing 86% identity and 100% similarity with Elc1). Elc1 is a ubiquitin-protein ligase (E3) conserved among eukaryotes that is involved in DNA repair (Harreman et al, 2009; Ribar et al, 2007). To identify what the peptides bound in order to modify APC activity, Y65 was cloned into the Y2H bait vector and used to identify binding partners.

Molecule: COc1cccc2c1C(=O)c1c(O)c3c(c(O)c1C2=O)C[C@@](O)(C(=O)CO)C[C@@H]3O[C@H]1C[C@H](N)[C@H](O)[C@H](C)O1 [Doxorubicin, reference compound]
metastatic potential / in vitro migration (MDA-MB-231 cells [1]): blocked

binds Apc10 in a yeast 2 hybrid assay (Apc10): Binds Apc10
Molecule: PVNGERWAP [C3-1B]
levels of the APC substrate HURP [2]: Only C1-8 did not reduce HURP levels

Molecule: SWLNGSGGVVLWLFSNFCCG [Y36]
bind the APC in a yeast 2HY assay (APC): not bind the APC in a yeast
apc5^CA temperature sensitive (ts) growth / viability [3]: increases the viability; also recorded: rescued; also recorded: Rescues apc5^CA temperature

Molecule: FCL (FLC) [C1-8]
levels of the APC substrate HURP [2]: did not reduce

Molecule: RRCLSIRTENLAWEGKFLRV [C50-1]
binds Apc10 in a yeast 2 hybrid assay (Apc10): Binds Apc10
viability of an APC mutant [4]: increases the viability of an APC mutant

Molecule: PSYNTIKYHETHGGRHPRRQRKRPI [C3-1]
binds Apc10 in a yeast 2 hybrid assay (Apc10): Binds Apc10
viability of an APC mutant [4]: increases the viability of an APC mutant
levels of the APC substrate CDC20 [2]: reduce levels

Molecule: SKWTWRMCMSWTVDRFAPVPWP [C24-1]
binds Apc5 in a yeast 2 hybrid assay (Apc5): Binds Apc5
viability of an APC mutant [4]: increases the viability of an APC mutant

Molecule: GALKEVCICIVESVGGEVFS [C13-3]
binds Apc5 in a yeast 2 hybrid assay (Apc5): Binds Apc5
viability of an APC mutant [4]: increases the viability of an APC mutant
levels of the APC substrate CDC20 [2]: reduce levels
synergy with Doxorubicin (killing effect) (MDA-MB-231 cells [5]): synergize
metastatic potential / in vitro migration (MDA-MB-231 cells [1]): inhibit the in vitro migration

Molecule: VRQKSDKEYERVLGLGLRRL [Y65]
bind the APC in a yeast 2HY assay (APC): not bind the APC in a yeast
Interacts with Cin5 in a yeast 2 hybrid assay (Cin5): One peptide binding partner was isolated, Cin5
apc5^CA temperature sensitive (ts) growth / viability [3]: increases the viability; also recorded: rescued; also recorded: Rescues apc5^CA temperature

Molecule: CECLETETFHPITRHLIVPV [C9-5]
binds Apc5 in a yeast 2 hybrid assay (Apc5): Binds Apc5
viability of an APC mutant [4]: increases the viability of an APC mutant
levels of the APC substrate HURP [2]: Only C1-8 did not reduce HURP levels
